One may read the IC50 as the concentration that gives 50% inhibition.

The test addresses ALK tyrosine kinase receptor (Homo sapiens, UniProt Q9UM73). Description: 2.5 uL-4x Test Compound or 100 nL 100x plus 2.4 uL kinase buffer; 2. 5 uL-2x Peptide/Kinase Mixture; 3. 2.5 uL-4xATP Solution; 4. 30-second plate shake; 5. 60-minute Kinase Reaction incubation at room temperature; 6. 5 uL-Development Reagent Solution; 7. 30-second plate shake; 8. 60-minute Development Reaction incubation at room temperature; 9. […] After the 1 hour Kinase Reaction incubation, 5 uL of a 1:256 dilution of Development Reagent B is added.

Sequence of ALK tyrosine kinase receptor (Q9UM73 whole entry): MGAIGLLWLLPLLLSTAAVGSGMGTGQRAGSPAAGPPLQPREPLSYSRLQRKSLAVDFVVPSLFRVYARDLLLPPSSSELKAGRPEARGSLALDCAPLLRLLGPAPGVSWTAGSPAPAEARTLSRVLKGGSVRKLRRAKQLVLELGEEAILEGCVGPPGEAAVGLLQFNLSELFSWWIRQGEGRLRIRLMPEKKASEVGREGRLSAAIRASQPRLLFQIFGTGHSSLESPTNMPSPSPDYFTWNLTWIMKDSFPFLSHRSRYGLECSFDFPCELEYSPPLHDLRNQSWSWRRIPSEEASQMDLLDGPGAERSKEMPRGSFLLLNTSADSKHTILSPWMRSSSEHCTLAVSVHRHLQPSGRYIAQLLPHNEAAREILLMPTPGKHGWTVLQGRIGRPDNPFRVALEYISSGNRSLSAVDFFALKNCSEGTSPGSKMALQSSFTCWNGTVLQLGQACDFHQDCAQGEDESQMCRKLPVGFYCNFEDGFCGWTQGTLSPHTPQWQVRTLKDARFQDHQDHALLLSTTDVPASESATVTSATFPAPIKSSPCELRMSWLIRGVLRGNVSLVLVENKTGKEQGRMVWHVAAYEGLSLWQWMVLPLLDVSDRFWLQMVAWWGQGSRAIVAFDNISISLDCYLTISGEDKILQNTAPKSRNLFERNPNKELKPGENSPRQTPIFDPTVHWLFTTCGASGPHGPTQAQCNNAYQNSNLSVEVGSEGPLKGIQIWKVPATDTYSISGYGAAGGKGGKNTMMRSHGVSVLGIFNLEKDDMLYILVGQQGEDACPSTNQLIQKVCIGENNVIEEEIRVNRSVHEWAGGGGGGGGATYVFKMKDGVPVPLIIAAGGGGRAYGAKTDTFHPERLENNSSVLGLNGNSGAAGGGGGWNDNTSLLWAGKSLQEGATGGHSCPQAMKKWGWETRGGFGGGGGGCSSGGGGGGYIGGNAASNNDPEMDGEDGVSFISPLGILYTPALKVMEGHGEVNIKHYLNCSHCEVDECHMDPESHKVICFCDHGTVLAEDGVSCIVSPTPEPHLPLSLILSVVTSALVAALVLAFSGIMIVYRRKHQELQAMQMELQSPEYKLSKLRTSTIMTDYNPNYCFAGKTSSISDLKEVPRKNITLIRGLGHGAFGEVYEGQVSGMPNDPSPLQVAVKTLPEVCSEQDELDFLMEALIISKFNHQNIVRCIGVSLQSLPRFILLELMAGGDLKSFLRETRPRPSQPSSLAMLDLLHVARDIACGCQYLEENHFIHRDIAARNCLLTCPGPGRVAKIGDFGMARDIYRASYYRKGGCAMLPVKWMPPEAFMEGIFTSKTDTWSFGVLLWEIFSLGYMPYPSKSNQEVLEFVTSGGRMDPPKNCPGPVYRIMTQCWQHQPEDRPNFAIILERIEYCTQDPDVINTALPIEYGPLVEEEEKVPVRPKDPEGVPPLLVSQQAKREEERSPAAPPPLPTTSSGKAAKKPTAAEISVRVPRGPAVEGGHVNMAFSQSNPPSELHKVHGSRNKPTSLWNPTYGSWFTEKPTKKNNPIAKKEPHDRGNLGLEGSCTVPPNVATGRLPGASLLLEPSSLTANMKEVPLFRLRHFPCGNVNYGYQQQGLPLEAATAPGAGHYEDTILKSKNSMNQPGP

As to `COc1cc(N2CCC(N(C)C)CC2)ccc1Nc1ncc(Cl)c(Nc2ccccc2C(=O)C(N)=O)n1`, the IC50 was 27.9 nM.

Source of the values: ChEMBL document CHEMBL5726454, “Protein tyrosine kinase modulators and methods of use” (2017).
